# Experimental data reported in patent US20090324743A1, “PULMONARY DRUG DELIVERY” (UNIVERSITY OF STRATHCLYDE, priority 2008, published 2009).
# Legend:
# B16-F0 cells [1] = experiment: Tumour development / liver metastases, organ weight and histology on day 21; assay type: in vivo, BALB/c male mice; details: Table 12 BALB/c male, solution 1 mg/ml, NIV 0.5 mg/ml
# Method: (§1) A number of studies have been completed where mice were treated on day 7 (post-tumour induction) with different cisplatin formulations by inhalation and the effect on subsequent tumour burdens, based on organ weight or direct assessment of the number and size distribution of tumours, was assessed 14 days later. The lungs, liver and spleen were cut into longitudinal slices and the kidney bisected and placed in a tissue cassette. After routine processing in paraffin wax, […] sections were mounted on a glass slide, dewaxed in 100% xylene and serially rehydrated in graded ethanol to water. Sections were then stained with haematoxylin and eosin and examined by light microscopy. For each organ the number and size of tiny (unmeasurable), small, medium and large tumours was determined counted in one H&E section. The size of the largest tumour deposit was also noted. The dimensions used to characterise tumours was small (0.5 to 1.4 mm), medium (1.5 to 2.9 mm), or large (>3 mm largest dimension). The percentage of tiny tumours was calculated using the total number of tumours present in the section.
# B16-F0 cells [2] = experiment: as above; assay type: in vivo, C57BL/6 male mice; details: Table 12 C57BL/6 male
# Method: as §1
# Leishmania donovani = experiment: In vivo efficacy study using Leishmania donovani; design: species or system BALB/c mice; details: iv 0.2 ml (0.5 mg/ml cisplatin) on day 7 post-infection; burdens seven days later
# Method: BALB/c mice were infected by intravenous injection (tail vein, no anaesthetic) with 1-2×10^7 L. donovani amastigotes (Carter et al., 1988). The day of parasite administration to the mice was designated day 0 of the experiment. On day 7 post-infection mice were treated by intravenous injection with 0.2 ml of the appropriate formulation by intravenous injection, without anaesthetic (n=4/treatment). On day 14 impression smears of the spleen and liver, and a smear of bone marrow, were made on to an individual glass microscope slide for each mouse at sacrifice. The slides were fixed in methanol for 30 secs, stained in 10% aqueous Giemsa stain (BDH, VWR International Ltd., Poole, UK) for 20 minutes, and then allowed to air dry. The number of parasites present/1000 host nuclei for the spleen, liver and bone marrow for each sample was determined at ×1000 magnification. The LDU was calculated by multiplying the number of parasites present/1000 host nuclei by the organ weight (gms) for the spleen and liver.
# [3] = Cisplatin levels in samples from mice treated by inhalation or intravenous injection (HPLC); assay type: in vivo, BALB/c mice; details: for Mean cisplatin concentration, Kidney / Mean cisplatin concentration, Liver / Mean cisplatin concentration, Lung lavages / Mean cisplatin concentration, Lungs / Mean cisplatin concentration, Serum / Mean cisplatin concentration, Spleen: 5 minutes after dosing
# Method: Mice were treated with the appropriate drug formulation either by intravenous injection of 0.2 ml of the appropriate drug formulation or PBS pH 7.4/saline (controls) or by inhalation with the appropriate drug formulation or saline (controls) using the Buxco® nebulisation system. 0.5 ml of the appropriate formulation or saline was added to the nebuliser which was attached to a Volumatic™ Spacer (Allen and Hanbury, Uxbridge, Middlesex). After 1.5 mins of nebulisation, the nebuliser was switched off, and the mice were exposed to the resulting aerosol for a further 5 minutes. […] Blood was taken by cardiac puncture and allowed to clot by storing for up to 12 hours at 4° C. Serum was separated from clotted blood sample by centrifuging at 13,000 rpm at 4° C., and transferred to a clean eppendorf tube. The lungs of the mouse were inflated by introducing two samples of 0.8 ml PBS pH 7.4 via the trachea and the resulting lung lavages were transferred to a clean eppendorf tube. Various organs were removed from the mouse and stored in 1.5 ml microfuge tubes. All the samples were stored at −20° C. until cisplatin levels within the samples could be determined using an HPLC assay.
# [4] = room temperature; cited from earlier work
# B16 F0 cells = experiment: In vivo lung cancer efficacy study, organ weights; details: Table 8; BALB/c female mice; inhalation day 7; Free drug (1 mg/ml), Processed cisplatin-NIV (0.5 mg/ml); sacrificed day 23
# [5] = inhalation day 7, cisplatin solution 1 mg/ml, cisplatin-NIV 0.5 mg/ml
# [6] = solution 1 mg/ml, NIV 0.5 mg/ml
# [7] = Table 3, inhalation 6.5 minutes, 0.5 ml of 0.5 mg/ml
# [8] = Table 4, inhalation 6.5 minutes, 0.5 ml of 0.5 mg/ml
smiles,measurement,setting,value
"[NH2][Pt]([NH2])([Cl])[Cl] [Cisplatin solution, cisplatin]","Lungs Tumours, percentage of tiny tumours",B16-F0 cells [1],Tiny 60%
same,Liver Weight,B16-F0 cells [2]; [5],1.76 ± 0.16
same,Lungs Weight,B16-F0 cells [2]; [5],0.25 ± 0.03
same,"Liver Tumours, D largest tumour mass, breadth",B16-F0 cells [2]; [6],4.44 ± 0.56
same,"Liver Tumours, D largest tumour mass, length",B16-F0 cells [2]; [6],D 5.64 ± 0.88 ×
same,"Liver Tumours, number large (L)",B16-F0 cells [2]; [6],L 6.4 ± 2.95
same,"Liver Tumours, number medium (M)",B16-F0 cells [2]; [6],M 2.8 ± 1.01
same,"Liver Tumours, number small (S)",B16-F0 cells [2]; [6],S 0.20 ± 0.20
same,"Lungs Tumours, D largest tumour mass, breadth",B16-F0 cells [2]; [6],0.7 ± 0.20
same,"Lungs Tumours, D largest tumour mass, length",B16-F0 cells [2]; [6],D 1.35 ± 0.35 ×
same,"Lungs Tumours, number large (L)",B16-F0 cells [2]; [6],L 0
same,"Lungs Tumours, number medium (M)",B16-F0 cells [2]; [6],M 1.0 ± 0.6
same,"Lungs Tumours, number small (S)",B16-F0 cells [2]; [6],S 1.2 ± 0.73
same,"Lungs Tumours, percentage of tiny tumours",B16-F0 cells [2]; [6],Tiny 0%
same,Mean number of parasites ± SE (L. donovani liver parasite burdens),Leishmania donovani,2142 ± 249
same,Detection of cisplatin by conventional HPLC analysis,[3]; 15 minutes after dosing,not possible to detect
same,"Mean cisplatin concentration, Kidney",[3]; [7],6.81 ± 2.53 μg/ml/g tissue
same,"Mean cisplatin concentration, Liver",[3]; [7],0.037 ± 0.04 μg/ml/g tissue
same,"Mean cisplatin concentration, Lung lavages",[3]; [7],0.004 ± 0.002 µg/mL
same,"Mean cisplatin concentration, Lungs",[3]; [7],0 ± 0 μg/ml/g tissue
same,"Mean cisplatin concentration, Serum",[3]; [7],0.268 ± 0.1 µg/mL
same,"Mean cisplatin concentration, Spleen",[3]; [7],0.018 ± 0.01 μg/ml/g tissue
same,"Mean cisplatin concentration, Kidney","[3]; Table 3, iv 0.2 ml, 0.5 mg/ml",0.951 ± 0.35 μg/ml/g tissue
same,"Mean cisplatin concentration, Liver","[3]; Table 3, iv 0.2 ml, 0.5 mg/ml",0.19 ± 0.13 μg/ml/g tissue
same,"Mean cisplatin concentration, Lung lavages","[3]; Table 3, iv 0.2 ml, 0.5 mg/ml",0.13 ± 0.07 µg/mL
same,"Mean cisplatin concentration, Lungs","[3]; Table 3, iv 0.2 ml, 0.5 mg/ml",0 ± 0 μg/ml/g tissue
same,"Mean cisplatin concentration, Serum","[3]; Table 3, iv 0.2 ml, 0.5 mg/ml",0.296 ± 0.13 µg/mL
same,"Mean cisplatin concentration, Spleen","[3]; Table 3, iv 0.2 ml, 0.5 mg/ml",0.065 ± 0.02 μg/ml/g tissue
same,"Mean cisplatin concentration, Kidney",[3]; [8],0.55 ± 0.48 μg/ml/g tissue
same,"Mean cisplatin concentration, Liver",[3]; [8],0.032 ± 0.02 μg/ml/g tissue
same,"Mean cisplatin concentration, Lung lavages",[3]; [8],0.095 ± 0.06 µg/mL
same,"Mean cisplatin concentration, Lungs",[3]; [8],0.032 ± 0.15 μg/ml/g tissue
same,"Mean cisplatin concentration, Serum",[3]; [8],0 ± 0 µg/mL
same,"Mean cisplatin concentration, Spleen",[3]; [8],0.346 ± 0.19 μg/ml/g tissue
same,"Mean cisplatin concentration, Kidney","[3]; Table 4, iv 0.2 ml, 0.5 mg/ml",0.55 ± 0.48 μg/ml/g tissue
same,"Mean cisplatin concentration, Liver","[3]; Table 4, iv 0.2 ml, 0.5 mg/ml",0.032 ± 0.02 μg/ml/g tissue
same,"Mean cisplatin concentration, Lung lavages","[3]; Table 4, iv 0.2 ml, 0.5 mg/ml",0.095 ± 0.06 µg/mL
same,"Mean cisplatin concentration, Lungs","[3]; Table 4, iv 0.2 ml, 0.5 mg/ml",0.032 ± 0.015 μg/ml/g tissue
same,"Mean cisplatin concentration, Serum","[3]; Table 4, iv 0.2 ml, 0.5 mg/ml",0.207 ± 0.02 µg/mL
same,"Mean cisplatin concentration, Spleen","[3]; Table 4, iv 0.2 ml, 0.5 mg/ml",0.346 ± 0.10 μg/ml/g tissue
same,Maximum aqueous solubility,[4],approximately 1 mg/ml
same,Lung weight,B16 F0 cells,0.33 ± 0.02
